Data on 61 compounds can be found in a melting point compilation (Tetko et al.; mined from patent text by program, amines drawn as free bases though some values may be those of a salt).

Some results are limits rather than exact numbers.

In general, melting point refers to the temperature of the solid-liquid transition. Compound `COC(=O)c1ccc(/C=C/c2nc(-c3ccccc3)oc2C)cc1` showed a melting point of 164 to 165 °C.

`COc1ccc2c(N3CCc4c(Br)ccc(C)c43)ncnc2c1` came in with a melting point of 134 to 135 °C.

`COc1cc(COc2nn(-c3ccccc3)cc2C=O)ccc1OCc1coc(-c2ccco2)n1` showed a melting point of 162 to 163 °C.

Take `CCC(Oc1ccccc1C(C)(C)C)C(=O)OC1CC(O)C=C2C=CC(C)C(CCC3CC(O)CC(=O)O3)C21` (mixture of isomers): the melting point lay in the range of 176 to 178 °C.

Compound `COc1ccccc1NC(=O)Nc1ccc(C2=CCN(C(=O)Nc3ccc(OCCO)cc3Cl)CC2)cc1` registered a melting point of 120 to 125 °C.

As for `COc1ccc(C(=O)Nc2ccc(C(C)(C)CNC(C)=O)c(-c3cccnc3)c2)cc1OC`, the melting point fell in the range of 234 to 237 °C.

`Cc1ccc(NCc2ccc(C(=O)Nc3ccccc3N)cc2)cc1Nc1nccc(-c2cccnc2)n1` came in with a melting point of 112 to 120 °C.

Consider `COc1ccc(C(=O)Nc2ncc(Cl)cc2Cl)c2c1oc1ccccc12`, for which the melting point turned out to be 302 °C.

As to `O=C1Nc2ccccc2Sc2nccn21`, the melting point was in the range of 250 to 252 °C.

Consider `O=C(Nc1cc(OCCCO/N=C/c2ccc(C(F)(F)F)cc2)ccc1C(=O)O)c1ccc(C(F)(F)F)cc1`, for which the melting point lay in the range of 209 to 210 °C.

As to `CCCCC(CC)n1c(CC)nc2c1C(=O)N(C)CN2c1ccc(Cl)cc1Cl` (stereo unspecified), the melting point was in the range of 94 to 95 °C.

`CC(C)(C)OC(=O)Nc1ncccc1Br` came in with a melting point of 120 to 121 °C.

Compound `O=S(=O)(NC(=NO)Nc1ccc(Cl)cc1)c1cc(S(=O)(=O)c2ccccc2)cs1` came in with a melting point of 195 °C.

Compound `CN1C(=O)CC[C@]2(C)c3ccc(C(=O)c4ccccc4)cc3CC[C@@H]12` gave a melting point of 116 °C.

`CC(C)c1cccc(C(C)C)c1NC(=O)NC1CCc2ccccc2C1` (stereo unspecified) gave a melting point of 214 to 215 °C.

On to `COc1ccc([C@@H]2Sc3cc(Cc4ccc(F)cc4)ccc3N(CCN(C)C)C(=O)[C@@H]2OC(C)=O)cc1`, for which the melting point lay within 154 to 156 °C.

For the compound `CCCCCCCCC#Cc1ccc2nc(C=O)ccc2c1`, the melting point lay within 46.5 to 47.5 °C.

In the case of `Cc1cc(C)nc(C(N)=NO)n1`, the melting point is 209 °C.

Regarding `O=c1c2ccc(Cl)cc2[nH]c2c(O)nn(Cc3ccsc3)c(=O)c12`, the melting point is greater than 250 °C.

Compound `Nc1ncccc1-c1nc2cc(F)cnc2n1-c1ccc(CC(=O)Nc2ccccc2)cc1` returned a melting point of 240 to 242 °C.

In turn, `NC(=O)CNC(=O)c1cccc(-c2cccc3sc(Cc4ccc(F)c(F)c4)cc23)c1` returned a melting point of 160 to 161 °C.

For the compound `Cc1ccc(S(=O)(=O)Oc2cccc(C=O)c2)cc1`, the melting point was in the range of 65 to 67 °C.

For `CC(C)OC(=O)c1cc(-n2c(=O)c(F)c(C(F)(F)F)n(C)c2=O)c(F)cc1Cl`, the melting point was 66 to 68 °C.

`O=C1N(Cc2ccc3nonc3c2)c2ccccc2C12COc1cc3c(cc12)OCCO3` (stereo unspecified) came in with a melting point of 164 to 166 °C.

In the case of `COCCOCOc1c(C(C)(C)C)cc(C2=NC(=S)N=N2)cc1C(C)(C)C`, the melting point stood at 187 °C.

Compound `CNC(=S)NCC1CN(c2ccc(N3CCOCC3)c(F)c2)C(=O)O1` (stereo unspecified) displayed a melting point of 158 to 160 °C.

The compound `O=S1(=O)N[C@@H](c2ccccc2)c2ccccc21` came in with a melting point of 139 °C.

In turn, `CC(=O)C1CCC2C3CCC4CC5OC5CC4(C)C3C(OC(=O)CCl)CC12C` (stereo unspecified) yielded a melting point of 163 to 169 °C.

Take `Cc1nc(NC(=O)c2cnn3c(C(F)F)cc(-c4ccc(C(F)(F)F)cc4)nc23)sc1S(=O)(=O)N(C)CCO`: the melting point came out at 216 °C.

`CCOC(=O)c1cccc2nc(OCC)n(Cc3ccc(-c4ccccc4C#N)cc3)c12` registered a melting point of 131 to 132 °C.

Take `COc1nc2cc(Cl)cc(C#CCO)c2nc1OC`: the melting point was in the range of 137 to 140 °C.

Compound `CCOc1ccc(N2CC(C(=O)OC)CC2=O)cc1` (stereo unspecified) gave a melting point of 67 to 69 °C.

The compound `CC(C)(C)n1nnc(Cc2ccc(CCC(=O)O)cc2)n1` gave a melting point of 139 to 141 °C.

The compound `OC1(c2ccc(Br)cc2)c2ccccc2C2=NCCN21` (stereo unspecified) came in with a melting point of 194 to 196 °C.

For the compound `CCNC(=O)c1c([Si](C)(C)C)sc2c1CCCC2`, the melting point was in the range of 107 to 112 °C.

The compound `O=C(CN1CCOCC1)Nc1cccc2c1C(=O)c1c-2n[nH]c1-c1ccc(N2CCNCC2)cc1` gave a melting point of 259 °C.

Consider `CN(C)C(=O)c1cncn1C`, for which the melting point was in the range of 46 to 47 °C.

For `O=C(O)c1ccccc1C(=O)c1cccc(NC(=O)c2ccn3c2CSC3c2cccnc2)c1` (stereo unspecified), the melting point worked out at 315 °C.

Compound `CC(C)N(C(=O)C(Cc1ccc(C#N)cc1)NC(=O)OC(C)(C)C)C(C)C` (stereo unspecified) returned a melting point of 172 °C.

`Cc1cc(Br)cnc1NCCCNC1=NS(=O)N=C1N` (stereo unspecified) returned a melting point of 204 to 205 °C.

Consider `Cc1cc2oc(C(N)=O)cc(=O)c2c(C)c1Cl`, for which the melting point is greater than 300 °C.

Compound `OCc1c(F)ccc(-n2cccc2)c1F` showed a melting point of less than 60 °C.

For `CCc1cccc2c3c([nH]c12)C(CC)(CC(=O)O)OCC3=O` (stereo unspecified), the melting point is 200 to 202 °C.

With `CCCCCC[C@H](C)COC(=O)c1ccc(-c2ccc(O)cc2)cc1`, the melting point was 89 °C.

Consider `CCOC(=O)C1CN(C(=O)c2cc(OC)c(OC)c(OC)c2)CCN1C(=O)C1=Cc2cc(OC)c(OC)cc2CCC1` (stereo unspecified), for which the melting point is 108 to 110 °C.

In turn, `Cn1nc(-c2c(F)cccc2Cl)nc1-c1ccc([N+](=O)[O-])cc1Cl` displayed a melting point of 144 to 148 °C.

Compound `CC(=O)OC1CSC(Oc2ccccc2-c2c(C)noc2C)C(OC(C)=O)C1OC(C)=O` (stereo unspecified) gave a melting point of 136 to 138 °C.

Turning to `O=C1COc2ccc(CCCCCCc3ccc4c(c3)NC(=O)CO4)cc2N1`, the melting point was 219 to 225 °C.

`CCCCCCCCCCCCCCCCCCOC(=O)COc1ccc(C2C(=O)Oc3c(C)cc(C)cc32)cc1` (stereo unspecified) registered a melting point of 57 to 59 °C.

With `Oc1ccc(CN[C@H]2CC[C@@H](C(c3ccccc3)c3ccccc3)OC2)cc1` (relative stereo), the melting point fell in the range of 136 to 138 °C.

`O=[N+]([O-])c1ccc(-c2ccc3nncn3n2)cc1C(F)(F)F` returned a melting point of 129 to 135 °C.

Turning to `CC1(N)CN(c2c(F)cc3c(=O)c(C(=O)O)cn(-c4nc(N)c(F)cc4F)c3c2Cl)C1`, the melting point came out at 280 °C.

In turn, `O=C(O)C1(C(=O)O)CCOCCOCCOCCOCC1` registered a melting point of 107 to 111 °C.

The compound `COc1cc2c(cc1O)C(C1(c3ccccc3Br)CCC1)N(C)CC2` (stereo unspecified) gave a melting point of 48 to 51 °C.

As to `COc1ccc2c(c1)CCC1CCNC(=O)C(CC(=O)O)=C21` (stereo unspecified), the melting point lay within 232 to 234 °C.

Compound `CC(C)C(=O)NC(c1ccc(Br)cc1)C(F)(F)F` (stereo unspecified) came in with a melting point of 176 to 178 °C.

Turning to `NS(=O)(=O)c1ccc2c(c1)S(=O)(=O)NC(C1CCCCC1)N2` (stereo unspecified), the melting point fell in the range of 252 to 254 °C.

Compound `c1ccc2c(c1)N=C(N1CCNCC1)c1ccccc1S2` gave a melting point of 66 to 69 °C.

Compound `Cc1nc2c(s1)-c1nc(Nc3ccc(N(C)C)cc3)ncc1CC2` showed a melting point of 176 to 177 °C.

For `CON(C(=O)c1ccc(C(=O)C(C)(C)C)cc1)C(=O)c1ccc(C(=O)C(C)(C)C)cc1`, the melting point is 103 to 105 °C.

The compound `CN(C)c1ccccc1CC(=O)N1C[C@H]2[C@@H](C1)C(c1ccccc1)(c1ccccc1)CC[C@@H]2O` yielded a melting point of 160 °C.
